Results from patent US9358224B2, “Pharmaceutical formulation comprising a phosphodiesterase inhibitor” (CHIESI FARMACEUTICI S.p.A., priority 2011, dated 2016).

Assay: Chemical stability study of the pMDI formulation at 25° C./60% RH
Type: physicochemical
Details: 1 and 3 months at 25° C./60% RH
Experimental: Physical and chemical stability of the formulation reported in table 1 has been assessed in a stability study at 1 and 3 months at 25° C./60% relative humidity (RH).
Chemical stability and performances data of the formulation are reported in Table 2, wherein “mean delivered dose intra-can” means the mean delivered dose of ten actuations on the same can (3 actuations at the beginning, 4 actuations in the middle and 3 actuations at the end of the life of the can).

CS(=O)(=O)Nc1ccc(C(=O)OC(Cc2c(Cl)c[n+]([O-])cc2Cl)c2ccc(OC(F)F)c(OCC3CC3)c2)cc1OCC1CC1 (single isomer, unassigned; (-)) [Compound C2, (−)-3-Cyclopropylmethoxy-4-methanesulfonylamino-benzoic acid 1-(3-cyclopropylmethoxy-4-difluoromethoxy-phenyl)-2-(3,5-dichloro-1-oxy-pyridin-4-yl)-ethyl ester]
chemical stability of C2 in the formulation (in words): no degradation during stability
